Results from patent publication US20250034127A1, “AUTOPHAGY INDUCING COMPOUNDS AND USES THEREOF, IN PARTICULAR FOR DISEASES OF THE CNS” (Samsara Therapeutics Inc., priority 2021, published 2025).

Assays:
[1] = system: C57BL/6JRj mice injured by intra-nigral injections of α-syn combined with conduritol B epoxide; test: Mouse model of Parkinson's disease (intra-nigral α-syn plus CBE); assay type: in vivo; details: 30 mg/kg per os twice a day
Source text: This model (run by Neuro-Sys SAS, France) uses C57BL/6JRj mice injured by intra-nigral injections of a solution containing protofibrils of alpha-synuclein (α-syn, precisely quantified by automatic Western Blot) and combined with pharmacological inhibition of GBA by conduritol B epoxide, in aged mice. The model reproduces essential neuropathological features of PD (e.g. loss of dopaminergic neurons, α-syn aggregation, endoplasmic reticulum [ER] stress) and the neuroinflammatory response (microglia activation and release of proinflammatory cytokines) in the nigra striata area.
Animal characteristics: • Type of animal: C57BL/6JRj (Male) • Age: 18 months old • Supplier: Janvier Labs • Animal number: 7 mice per group • Acclimation and clinical signs: Animals arrived on site 7 days (one week) before the experiment to allow optimal acclimation.
• Test compound dose and administration: 30 mg/kg, per os (gavage or drinking water), twice a day • Test compound treatment: The test compound was solubilized (vehicle=water), aliquoted and stored at −20° C. Aliquots were thawed overnight at 4° C. and given twice a day (morning and afternoon). Treatment started on the day of the stereotaxic injections of α-syn preparation (Day 0). Treatment was administrated until the last day of the experiment (Day 28; =day of dissection). • CBE dose and administration: 50 mg/kg, Intraperitoneal (i.p.), twice a day. • CBE treatment: Administration of CBE (vehicle=saline [NaCl 0.9%] started on the day of the stereotaxic injections of α-syn preparation (Day 0). Treatment was administrated until the last day of the experiment (Day 28; =day of dissection), • Untreated control: vehicle (saline; i.p.) administered twice a day, […]
For overall evaluation and body mass, mice were observed daily, and body mass was monitored prior the morning drug administration. […]

[2] = system: Human osteosarcoma U2OS cells; test: Assay to measure lysosome and autolysosome (acidic vesicle) formation in U2OS cells; assay type: cell-based; details: Homo sapiens, concentration of 0.8 μM, read-out: Activity (percentage increase in acidic vesicle formation over the DMSO-treated control)
Description: Lysosomes play a fundamental role in the autophagic pathway by fusing with autophagosomes and creating ‘autolysosomes’ in order to digest their contents. Stimulation of lysosome and autolysosome formation by a compound is indicative of a stimulation of autophagy. The ability of compounds to stimulate lysosome and autolysosome formation, and thus autophagy, in live cells was assessed via fluorescent microscopy using various fluorescent stains for labelling and tracking acidic organelles (including lysosomes and autolysosomes) such as: LysoView™ 650 (70059 and 70059-T, Biotium), Lyso View™633 (70058 and 70058-T, Biotium) and LysoTracker™ Deep Red (L12492, ThermoFisher Scientific). The cellular phenotype was quantitatively assessed for the induction of acidic vesicle formation and compared to a non-treated control, thus providing a measure of the ability of the compound under investigation to stimulate autophagy.
Representative procedure using LysoView™ 633 dye or LysoTracker™ Deep Red dye: Human osteosarcoma U2OS cells (40,000 cells/well) were seeded in a 24 well glass bottom plate (Sensoplate, Greiner Bio-One) and were incubated overnight in a humidified atmosphere at 37° C. and 5% CO2. Cells were grown in DMEM (Gibco) supplemented with 10% Fetal Bovine Serum (FBS) and 100 units/ml penicillin and 100 μg/ml streptomycin (Invitrogen). After the attachment period, cells were treated with different compounds of interest (at various concentrations in DMSO) or DMSO (non-treated control) in cell culture medium and were incubated for 24 hours. Compound-containing medium was removed and cells were incubated with pre-warmed cell culture medium containing 1× Lyso View™ 633 (70058 and 70058-T, Biotium) or 50 nM LysoTracker™ Deep Red (L12492, ThermoFisher Scientific) for 45 minutes at 37° C. Finally, cell nuclei were stained for 10 minutes using Hoechst 33342 (1 μg/mL) and then the medium was replaced with fresh medium. The 24 well plate was then fitted into a heated stage on the microscope and cells maintained at 37° C. Images were captured using appropriate filter set for Cy5 and DAPI detection with the EVOS M7000 Microscope (ThermoFisher Scientific). The cellular phenotype was visually assessed for the induction of acidic vesicle formation relative to the non-treated control; multiple images were acquired and analysed using ImageJ or Cell Profiler.

[3] = day 28, compared to the α-syn/CBE injured group

CCN1CCC(N(C)C(=O)c2csc(-c3cnn(-c4ccccc4)c3)n2)CC1 [Compound 196, N-(1-ethylpiperidin-4-yl)-N-methyl-2-(1-phenyl-1H-pyrazol-4-yl)-1,3-thiazole-4-carboxamide] was tested, and the “body mass of the animals” value ([1]; after 4 weeks of treatment) was “did not significantly modify”, the “decrease in the number of Iba1-positive microglial cells in the SNpc” value [1, 3] was over 15% and the “increase in the number of dopaminergic TH positive neurons in the SNpc” value [1, 3] was over 60%. For the same compound, the activation at 0.8 µM [2] was 30 to 50%.
